Source: ChEMBL document CHEMBL4024791, “Identification of Morpholino-2H-pyrido[3,2-b][1,4]oxazin-3(4H)-ones as Nonsteroidal Mineralocorticoid Antagonists” (J Med Chem, 2018)

Tests used:
[1] = Intrinsic clearance in rat liver microsomes
[2] = Intrinsic clearance in human liver microsomes
[3] = Oral bioavailability in dog; type: ADME, organism-based, Canis lupus familiaris; conditions: in vivo
[4] = target: T1, Mineralocorticoid receptor (Rattus norvegicus, UniProt P22199); assay: Antagonist activity at rat GAL4-DBD fused MR ligand binding domain transfected in human Huh7 cells co-expressing GAL4-RE-Luc assessed as reduction in aldosterone-induced luciferase activity after 16 hrs in serum free condition by luciferase reporter gene assay; type: cell-based
T1 sequence (P22199 whole entry): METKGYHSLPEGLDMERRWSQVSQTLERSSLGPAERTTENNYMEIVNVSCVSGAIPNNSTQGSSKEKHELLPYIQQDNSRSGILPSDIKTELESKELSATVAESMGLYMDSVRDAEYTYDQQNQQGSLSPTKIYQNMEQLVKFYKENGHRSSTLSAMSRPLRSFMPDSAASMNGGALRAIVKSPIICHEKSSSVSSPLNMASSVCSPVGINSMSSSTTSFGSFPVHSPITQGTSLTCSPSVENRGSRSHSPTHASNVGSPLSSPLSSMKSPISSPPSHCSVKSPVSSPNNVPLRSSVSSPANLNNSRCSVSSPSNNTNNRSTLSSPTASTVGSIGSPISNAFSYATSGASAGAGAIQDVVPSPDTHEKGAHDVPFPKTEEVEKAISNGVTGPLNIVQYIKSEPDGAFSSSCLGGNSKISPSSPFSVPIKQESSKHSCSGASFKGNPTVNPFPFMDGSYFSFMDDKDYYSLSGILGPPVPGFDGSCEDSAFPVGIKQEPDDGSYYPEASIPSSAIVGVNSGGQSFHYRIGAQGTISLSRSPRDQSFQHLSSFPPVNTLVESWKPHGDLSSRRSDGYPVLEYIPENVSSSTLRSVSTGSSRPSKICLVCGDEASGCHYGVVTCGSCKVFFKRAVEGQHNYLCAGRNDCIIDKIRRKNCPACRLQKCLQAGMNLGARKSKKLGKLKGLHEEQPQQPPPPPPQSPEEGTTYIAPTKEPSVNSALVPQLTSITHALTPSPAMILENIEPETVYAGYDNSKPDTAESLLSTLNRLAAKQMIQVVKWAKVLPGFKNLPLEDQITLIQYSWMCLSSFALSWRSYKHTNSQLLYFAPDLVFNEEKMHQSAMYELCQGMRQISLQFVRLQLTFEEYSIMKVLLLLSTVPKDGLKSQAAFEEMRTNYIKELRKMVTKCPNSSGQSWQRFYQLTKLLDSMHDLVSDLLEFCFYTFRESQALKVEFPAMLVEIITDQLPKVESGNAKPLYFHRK

[5] = AUC in Wistar rat at 30 mg/kg, po administered as single dose measured up to 8 hrs post dose by LC-MS analysis; type: ADME, organism-based; design: time < 8 hr, dose 30 mg/kg, route oral; conditions: in vivo
Glucocorticoid receptor = target: T2, Glucocorticoid receptor (Homo sapiens, UniProt P04150); assay: Displacement of [3H]-dexamethasone from recombinant human GST-tagged GR ligand binding domain after 4 hrs by liquid scintillation counting
T2 sequence (P04150 whole entry): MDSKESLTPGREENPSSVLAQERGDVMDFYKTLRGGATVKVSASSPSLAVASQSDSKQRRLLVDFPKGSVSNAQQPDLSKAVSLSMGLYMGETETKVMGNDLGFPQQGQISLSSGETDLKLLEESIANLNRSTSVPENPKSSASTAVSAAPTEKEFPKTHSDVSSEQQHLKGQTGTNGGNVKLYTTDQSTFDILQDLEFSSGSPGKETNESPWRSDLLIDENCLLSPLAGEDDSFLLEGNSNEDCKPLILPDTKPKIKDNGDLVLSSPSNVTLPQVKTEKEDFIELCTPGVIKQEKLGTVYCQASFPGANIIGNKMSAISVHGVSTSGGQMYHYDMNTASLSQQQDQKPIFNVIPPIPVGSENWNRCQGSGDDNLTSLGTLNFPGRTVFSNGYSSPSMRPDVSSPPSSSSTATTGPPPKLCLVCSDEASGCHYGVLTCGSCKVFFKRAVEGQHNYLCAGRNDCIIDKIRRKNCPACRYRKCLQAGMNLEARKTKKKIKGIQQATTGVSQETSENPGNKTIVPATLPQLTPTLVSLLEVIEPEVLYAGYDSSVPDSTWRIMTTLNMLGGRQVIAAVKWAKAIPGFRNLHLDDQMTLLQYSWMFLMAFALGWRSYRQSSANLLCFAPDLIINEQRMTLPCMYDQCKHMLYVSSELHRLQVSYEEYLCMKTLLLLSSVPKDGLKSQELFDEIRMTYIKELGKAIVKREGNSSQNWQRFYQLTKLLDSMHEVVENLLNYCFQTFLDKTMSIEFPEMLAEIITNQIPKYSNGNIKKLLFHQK

Androgen receptor = target: T3, Androgen receptor (Homo sapiens, UniProt P10275); assay: Binding affinity to AR (unknown origin); type: ADME
T3 sequence (P10275 whole entry): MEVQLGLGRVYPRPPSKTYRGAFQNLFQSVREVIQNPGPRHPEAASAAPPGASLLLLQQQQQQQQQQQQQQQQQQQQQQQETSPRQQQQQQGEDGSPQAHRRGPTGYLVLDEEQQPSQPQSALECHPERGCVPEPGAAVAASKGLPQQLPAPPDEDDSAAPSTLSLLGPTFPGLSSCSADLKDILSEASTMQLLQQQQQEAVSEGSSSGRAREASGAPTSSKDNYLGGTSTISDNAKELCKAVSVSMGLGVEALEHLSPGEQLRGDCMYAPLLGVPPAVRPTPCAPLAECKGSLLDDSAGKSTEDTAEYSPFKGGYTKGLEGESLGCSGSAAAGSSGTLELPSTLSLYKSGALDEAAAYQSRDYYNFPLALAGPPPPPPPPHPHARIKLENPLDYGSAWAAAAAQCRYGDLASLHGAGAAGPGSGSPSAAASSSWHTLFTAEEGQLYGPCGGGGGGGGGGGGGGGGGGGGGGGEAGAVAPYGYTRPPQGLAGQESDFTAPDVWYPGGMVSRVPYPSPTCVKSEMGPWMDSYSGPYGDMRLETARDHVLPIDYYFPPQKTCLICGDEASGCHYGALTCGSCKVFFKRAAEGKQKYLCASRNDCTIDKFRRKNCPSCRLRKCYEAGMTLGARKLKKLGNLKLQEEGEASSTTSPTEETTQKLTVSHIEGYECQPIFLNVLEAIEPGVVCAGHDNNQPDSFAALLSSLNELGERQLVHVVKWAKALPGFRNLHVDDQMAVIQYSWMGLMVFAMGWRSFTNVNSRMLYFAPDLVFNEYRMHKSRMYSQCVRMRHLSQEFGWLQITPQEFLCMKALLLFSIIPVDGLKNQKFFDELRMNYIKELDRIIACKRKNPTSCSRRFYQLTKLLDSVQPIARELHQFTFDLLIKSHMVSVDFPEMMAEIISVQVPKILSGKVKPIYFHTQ

microsomal CLint [1] [µL/min/mg] | microsomal CLint [2] [µL/min/mg] | bioavailability [3] [%] | IC50 [4] [µM] | AUC at 8 h [5] [ng·h/mL] | IC50 (Glucocorticoid receptor) [µM] | IC50 (Androgen receptor) [µM] | Compound
223 | 18.3 | – | – | – | – | – | O=C1COc2ccc(N3CCOC[C@H]3c3ccccc3)cc2N1
– | – | 65 | 0.0032 | 2850 | > 10 | > 10 | C[C@@H]1CN(c2ccc3c(n2)NC(=O)CO3)[C@H](c2ccccc2)CO1
